The source of these data is patent US20200199647A1, “ASSAY FOR SCREENING MODULATORS OF HOLOPHOSPHATASE ACTIVITY” (UNITED KINGDOM RESEARCH AND INNOVATION, priority 2017, published 2020).

The target of assay [1] is T1, PP1c (Homo sapiens, UniProt P62136).
T1 construct: The cDNA encoding amino acids 7-330 of human PP1cα; made in house; host or cells: E. coli BL21/pGro7 (PP1c); E. coli BL21 pLysS (eIF2α)
The assay is described as follows: Dephosphorylation of P-eIF2α by increasing amounts of PP1c alone. It counts as biochemical. To be noted: compound 100 μM, 30° C., 16 h. The protocol:
(§1) PP1c was diluted to the appropriate concentration (as indicated in the figure legends) in dephosphorylation buffer immediately prior to use. Dephosphorylation reactions were carried out by pre-incubating diluted PP1c in the presence or absence of regulatory subunits (either […]), and/or compounds (all at 100 μM, except for Salubrinal which was used at 30 μM), for 15′ at RT. All compounds were diluted in DMSO, and DMSO vehicle was used in all control experiments.
(§2) The reaction was initiated by the addition of 1 μM P-eIF2α or ^33P Phosphorylase a substrates and then incubated at 30° C. for 16 h with shaking at 350 rpm. Reactions were stopped by addition of 4× Laemmli sample buffer. eIF2α samples were analyzed by immunoblotting or Phos-tag gels. […] Samples in FIG. 8 and FIG. 16 were run on a 15% SuperSep Phos-tag acrylamide gel (Alpha Laboratories) and visualized by staining with InstantBlue Protein Stain.

In assay [2] the target is T2, R15B (Homo sapiens, UniProt Q5SWA1).
T2 construct: PPP1R15B amino acids 340-698 (R15B); His6 (C); made in house; host or cells: E. coli BL21 pLysS
T2 sequence (Q5SWA1 340-698): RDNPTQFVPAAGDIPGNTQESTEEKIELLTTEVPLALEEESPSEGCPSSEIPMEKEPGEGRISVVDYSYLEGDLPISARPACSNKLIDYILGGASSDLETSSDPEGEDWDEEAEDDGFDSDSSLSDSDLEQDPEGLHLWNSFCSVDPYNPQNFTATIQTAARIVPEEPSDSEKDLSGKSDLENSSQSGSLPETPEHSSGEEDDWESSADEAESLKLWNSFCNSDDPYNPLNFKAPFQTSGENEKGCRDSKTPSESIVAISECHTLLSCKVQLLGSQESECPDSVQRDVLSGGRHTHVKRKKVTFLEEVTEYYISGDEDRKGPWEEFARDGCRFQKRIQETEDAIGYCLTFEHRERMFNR
The assay is described as follows: Pull-down: binding of P-eIF2α to MBP-tagged R15B on amylose beads. To be noted: 200 μM compound, 200 nM MBP-R15B, 1 μM P-eIF2α, 10 min 4° C. Here is the method: (§3) Purified MBP-tagged regulatory subunits (200 nM), P-eIF2α (1 μM), PP1c ([…]), and 200 μM compounds, or DMSO vehicle, were added as appropriate to 20 μl amylose magnetic bead, pre-equilibrated with interaction buffer (50 mM Tris (pH 7.4), 200 mM NaCl, 0.05% Tween20) in 200 μl volume. All protein dilutions were carried out in interaction buffer. 5% input sample was removed, and added to 4× Laemmli sample buffer for later analysis. The beads were incubated for 10′ at 4° C. The supernatant was removed, and the beads were washed thoroughly with interaction buffer and then resuspended with 50 μl of 2× Laemmli sample buffer. Samples were run on 4-12% NuPAGE Bis-Tris gels (Life Technologies) and analysed by immunoblotting, using anti-MBP HRP (E8038) (NEB), anti-eIF2α (ab26197) (AbCam) or anti-PPP1A (ab137512) (AbCam) antibodies.

Assay [3] addresses T3, R15A (Homo sapiens, UniProt O75807).
T3 construct: PPP1R15A amino acids 325-636 (R15A); His6 (C); made in house; host or cells: E. coli BL21 pLysS
Briefly: Pull-down: binding of P-eIF2α to MBP-tagged R15A on amylose beads. As to conditions: 200 μM compound, 200 nM MBP-R15A, 1 μM P-eIF2α, 10 min 4° C. The protocol:
as §3

In assay [4] the target is T4, R15B^N/R15A^C (Homo sapiens, UniProt O75807+Q5SWA1).
T4 construct: PPP1R15B amino acids 340-698 (R15B), 340-635 (R15B^N), and 636-698 (R15B^C); PPP1R15A amino acids 325-636 (R15A), 325-512 (R15A^N), and 513-636 (R15A^C); R15A^C (PPP1R15A amino acids 513-636); His6 (C); made in house; host or cells: E. coli BL21 pLysS (chimera, eIF2α); E. coli BL21/pGro7 (PP1c)
The assay is described as follows: Dephosphorylation of P-eIF2α by chimeric holophosphatase PP1c-R15B^N/R15A^C. It counts as biochemical. As to conditions: PP1c 10 nM, compounds 100 μM, 30° C., 16 h.
Description: The cDNA encoding human PPP1R15A, PPP1R15B and PPP1R3A regulatory subunits were cloned into a pMAL-c5×-His vector, encoding for an amino-terminal MBP-tag and a carboxy-terminal His6-tag. […] R15A^N/R15B^C Chimeras were obtained by swapping the amino-terminal regions (R15^N) of R15A and R15B proteins described above, whilst maintaining the same carboxy-terminal regions (R15^C), to produce R15B^N/R15A^C and […] chimeras respectively, using In-Fusion cloning (Takara). All regulatory subunits were expressed in BL21 pLysS cells in Luria broth (LB) at 30° C. overnight. […] R15 proteins were stored at −80° C. and used within one month.
as §1
The reaction was initiated by the addition of 1 μM P-eIF2α or ^33P Phosphorylase a substrates and then incubated at 30° C. for 16 h with shaking at 350 rpm. Reactions were stopped by addition of 4× Laemmli sample buffer. eIF2α samples were analyzed by immunoblotting or Phos-tag gels. […]

The target of assay [5] is T5, PP1 (1 μM) in the presence of R15A (Homo sapiens, UniProt O75807).
T5 construct: PPP1R15A amino acids 325-636 (R15A); His6 (C); made in house; host or cells: E. coli BL21 pLysS (R15A, eIF2α); E. coli BL21/pGro7 (PP1c)
The assay is described as follows: In vitro dephosphorylation of P-eIF2α using stoichiometric PP1c (1 μM) with R15A. The assay is classed as biochemical. To be noted: 1 μM PP1c, 1 μM P-eIF2α, 30° C., 16 h; compounds 100 μM. Here is the method:
as §1, §2

Assay [6] deals with T3, R15A. The assay is described as follows: Light scattering to monitor aggregation of R15A. To be noted: 1 mM compound, 5 μM R15A, 10 min, 20° C. The protocol:
Samples were incubated for 10 min at RT. […] Therefore, light scattering was measured at 380 nm emission, 380 nm absorption to monitor the presence of aggregates. For each sample, 100 data points were collected over a period of 10 min, at 20° C., with constant stirring.

The structures appear in SMILES notation.

T3 sequence (O75807 325-636, stated change not applied): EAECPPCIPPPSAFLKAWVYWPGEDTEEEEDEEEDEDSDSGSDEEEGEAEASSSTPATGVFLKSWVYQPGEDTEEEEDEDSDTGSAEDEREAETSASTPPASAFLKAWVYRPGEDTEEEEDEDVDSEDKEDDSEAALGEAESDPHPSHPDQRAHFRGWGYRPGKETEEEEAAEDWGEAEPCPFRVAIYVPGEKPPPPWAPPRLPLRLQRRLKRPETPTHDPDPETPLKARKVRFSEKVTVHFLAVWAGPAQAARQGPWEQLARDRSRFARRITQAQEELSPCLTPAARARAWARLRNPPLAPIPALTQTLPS
T4 sequence (Q5SWA1+O75807 fused, stated change not applied): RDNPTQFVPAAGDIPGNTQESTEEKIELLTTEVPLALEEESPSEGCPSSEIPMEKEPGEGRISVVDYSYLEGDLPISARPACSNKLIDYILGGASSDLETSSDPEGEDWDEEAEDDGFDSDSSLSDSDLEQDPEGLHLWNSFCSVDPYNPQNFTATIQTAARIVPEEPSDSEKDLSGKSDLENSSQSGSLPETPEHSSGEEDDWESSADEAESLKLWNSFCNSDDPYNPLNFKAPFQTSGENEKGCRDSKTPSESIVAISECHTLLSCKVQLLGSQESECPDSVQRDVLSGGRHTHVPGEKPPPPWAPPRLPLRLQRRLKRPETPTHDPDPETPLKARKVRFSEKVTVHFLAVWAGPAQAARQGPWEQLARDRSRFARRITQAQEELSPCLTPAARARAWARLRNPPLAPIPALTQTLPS
T4 sequence (P62136 7-330 partner): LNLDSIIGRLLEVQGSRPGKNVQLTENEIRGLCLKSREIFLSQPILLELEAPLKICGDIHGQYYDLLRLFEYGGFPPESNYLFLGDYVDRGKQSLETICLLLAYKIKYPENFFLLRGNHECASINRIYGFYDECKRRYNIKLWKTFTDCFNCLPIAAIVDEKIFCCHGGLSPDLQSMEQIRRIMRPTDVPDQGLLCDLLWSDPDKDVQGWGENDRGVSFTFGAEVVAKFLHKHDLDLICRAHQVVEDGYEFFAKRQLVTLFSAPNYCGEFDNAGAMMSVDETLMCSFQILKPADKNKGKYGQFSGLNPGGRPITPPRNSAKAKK
T1 sequence (P62136 7-330): as the sequence (P62136 7-330 partner) above
T5 sequence (O75807 325-636, stated change not applied): as the sequence (O75807 325-636, stated change not applied) above
T5 sequence (P62136 7-330 partner): as the sequence (P62136 7-330 partner) above

With `NC(N)=N/N=C/c1cccc(Cl)c1Cl` [Raphin1], the “inhibition of PP1c alone” value in assay [1] is on record as “did not inhibit PP1c”. The “effect on binding of eIF2α to R15B” value in assay [2] is “decreased the binding of eIF2α to R15B”. Also, the “effect on binding of eIF2α to R15A” value in assay [3] was “this inhibition was not observed with R15A”. Moreover, the “inhibition of R15B^N/R15A^C chimeric holophosphatase” value in assay [4] was “selectively inhibited R15B^N/R15A^C”.
As to `N=C(N)N/N=C/c1c(Cl)cccc1Cl` [Guanabenz], the “inhibition of PP1c alone” value in assay [1] is listed as “did not inhibit PP1c”. Moreover, the “effect on binding of eIF2α to R15B” value in assay [2] is “no such effect was observed”. In addition, in assay [5], the “effect on dephosphorylation of eIF2α by PP1c with R15A” value is “neither the selective R15A inhibitors, Guanabenz and Sephin1, nor the selective inhibitor of R15B, Raphin1, had any measurable effects”. Also, the “effect on binding of eIF2α to R15A” value in assay [3] is given as “decreased the binding of R15A to eIF2α”. Besides, the “inhibition of R15B^N/R15A^C chimeric holophosphatase” value in assay [4] is “largely insensitive”. In addition, the “aggregation of R15A (light scattering at 380 nm)” value in assay [6] was “No aggregation”.
